Key:
Type in all cases: functional
[1] = tested on: A549; experiment: Growth inhibition of human A549/ATCC cells assessed as cell growth at 0.01 uM after 48 hrs by SRB assay relative to control; details: A549, 48 h, read-out: Activity
[2] = tested on: HCC 2998; experiment: Growth inhibition of human HCC2998 cells assessed as cell growth at 0.01 uM after 48 hrs by SRB assay relative to control; details: HCC 2998, 48 h, read-out: Activity
[3] = tested on: HCT-15; experiment: Growth inhibition of human HCT15 cells assessed as cell growth at 0.01 uM after 48 hrs by SRB assay relative to control; details: HCT-15, 48 h, read-out: Activity
[4] = tested on: KM12; experiment: Growth inhibition of human KM12 cells assessed as cell growth at 0.01 uM after 48 hrs by SRB assay relative to control; details: KM12, 48 h, read-out: Activity
[5] = tested on: SF-268; experiment: Growth inhibition of human SF268 cells assessed as cell growth at 0.01 uM after 48 hrs by SRB assay relative to control; details: SF-268, 48 h, read-out: Activity
[6] = tested on: SNB-19; experiment: Growth inhibition of human SNB19 cells assessed as cell growth at 0.01 uM after 48 hrs by SRB assay relative to control; details: SNB-19, 48 h, read-out: Activity
[7] = tested on: SNB-75; experiment: Growth inhibition of human SNB75 cells assessed as cell growth at 0.01 uM after 48 hrs by SRB assay relative to control; details: SNB-75, 48 h, read-out: Activity
[8] = tested on: NCI-H322M; experiment: Growth inhibition of human NCI-H322M cells assessed as cell growth at 0.1 uM after 48 hrs by SRB assay relative to control; details: read-out: Activity
[9] = tested on: HCT-116; experiment: Growth inhibition of human HCT116 cells assessed as cell growth at 0.1 uM after 48 hrs by SRB assay relative to control; details: HCT-116, 48 h, read-out: Activity
[10] = tested on: HT-29; experiment: Growth inhibition of human HT-29 cells assessed as cell growth at 0.1 uM after 48 hrs by SRB assay relative to control; details: HT-29, 48 h, read-out: Activity
[11] = tested on: M14; experiment: Growth inhibition of human M14 cells assessed as cell growth at 0.1 uM after 48 hrs by SRB assay relative to control; details: M14, 48 h, read-out: Activity
[12] = tested on: IGROV-1; experiment: Growth inhibition of human IGROV1 cells assessed as cell growth at 0.1 uM after 48 hrs by SRB assay relative to control; details: IGROV-1, 48 h, read-out: Activity
[13] = tested on: MDA-MB-468; experiment: Growth inhibition of human MDA-MB-468 cells assessed as cell growth at 0.1 uM after 48 hrs by SRB assay relative to control; details: MDA-MB-468, 48 h, read-out: Activity
[14] = tested on: U-251; experiment: Growth inhibition of human U251 cells assessed as cell growth at 1 uM after 48 hrs by SRB assay relative to control; details: U-251, 48 h, read-out: Activity
[15] = tested on: UACC-62; experiment: Growth inhibition of human UACC62 cells assessed as cell growth at 1 uM after 48 hrs by SRB assay relative to control; details: UACC-62, 48 h, read-out: Activity
[16] = tested on: CCRF-CEM; experiment: Growth inhibition of human CCRF-CEM cells assessed as cell growth at 10 uM after 48 hrs by SRB assay relative to control; details: read-out: Activity
[17] = tested on: SR; experiment: Growth inhibition of human SR cells assessed as cell growth at 10 uM after 48 hrs by SRB assay relative to control; details: read-out: Activity
[18] = tested on: MOLT-4; experiment: Growth inhibition of human MOLT4 cells assessed as cell growth at 100 uM after 48 hrs by SRB assay relative to control; details: MOLT-4, 48 h, read-out: Activity
[19] = tested on: NCI-H460; experiment: Growth inhibition of human NCI-H460 cells assessed as cell growth at 100 uM after 48 hrs by SRB assay relative to control; details: NCI-H460, 48 h, read-out: Activity
[20] = tested on: UACC-62; experiment: Growth inhibition of human UACC62 cells assessed as cell growth at 100 uM after 48 hrs by SRB assay relative to control; details: UACC-62, 48 h, read-out: Activity
[21] = tested on: OVCAR-8; experiment: Growth inhibition of human OVCAR8 cells assessed as cell growth at 100 uM after 48 hrs by SRB assay relative to control; details: OVCAR-8, 48 h, read-out: Activity
[22] = tested on: NCI/ADR-RES; experiment: Growth inhibition of human NCI-ADR-RES cells assessed as cell growth at 100 uM after 48 hrs by SRB assay relative to control; details: read-out: Activity
[23] = tested on: PC-3; experiment: Growth inhibition of human PC3 cells assessed as cell growth at 100 uM after 48 hrs by SRB assay relative to control; details: PC-3, 48 h, read-out: Activity
[24] = tested on: MDA-MB-468; experiment: Growth inhibition of human MDA-MB-468 cells assessed as cell growth at 100 uM after 48 hrs by SRB assay relative to control; details: MDA-MB-468, 48 h, read-out: Activity
[25] = tested on: HCC 2998; experiment: Cytotoxicity against human HCC2998 cells assessed as growth inhibition after 48 hrs by SRB assay; details: HCC 2998, 48 h
[26] = tested on: Malme-3M; experiment: Cytotoxicity against human MALME-3M cells assessed as growth inhibition after 48 hrs by SRB assay
[27] = tested on: SK-MEL-5; experiment: Cytotoxicity against human SK-MEL-5 cells assessed as growth inhibition after 48 hrs by SRB assay; details: SK-MEL-5, 48 h
[28] = tested on: UACC-62; experiment: Cytotoxicity against human UACC62 cells assessed as growth inhibition after 48 hrs by SRB assay; details: UACC-62, 48 h
[29] = tested on: OVCAR-5; experiment: Cytotoxicity against human OVCAR5 cells assessed as growth inhibition after 48 hrs by SRB assay; details: OVCAR-5, 48 h
[30] = tested on: MCF7; experiment: Cytotoxicity against human MCF7 cells assessed as growth inhibition after 48 hrs by SRB assay; details: MCF7, 48 h
[31] = read-out: LC50 (the source's name)
[32] = read-out: pLC50 (the source's name) (converted)

## COc1ccc2c(c1)CCc1n[nH]c(-c3cc(OC)c(OC)c(OC)c3)c1-2
[1]
  growth at 0.01 µM: 14%
[2]
  growth at 0.01 µM: 15%
[3]
  growth at 0.01 µM: 6%
[4]
  growth at 0.01 µM: 14%
[5]
  growth at 0.01 µM: 39%
[6]
  growth at 0.01 µM: 33%
[7]
  growth at 0.01 µM: 12%
[8]
  growth at 0.1 µM: 40%
[9]
  growth at 0.1 µM: 3%
[10]
  growth at 0.1 µM: 2%
[11]
  growth at 0.1 µM: 1%
[12]
  growth at 0.1 µM: 29%
[13]
  growth at 0.1 µM: -2%
[14]
  growth at 1 µM: 8%
[15]
  growth at 1 µM: 36%
[16]
  growth at 10 µM: 41%
[17]
  growth at 10 µM: 9%
[18]
  growth at 100 µM: 6%
[19]
  growth at 100 µM: -59%
[20]
  growth at 100 µM: -76%
[21]
  growth at 100 µM: -38%
[22]
  growth at 100 µM: -31%
[23]
  growth at 100 µM: -43%
[24]
  growth at 100 µM: -39%
[25]; read-out: GI50
  GI50: < 0.01 µM
[25]; [31]
  CC50: 44.3 µM
[25]; read-out: TGI
  TGI: 11.4 µM
[25]; read-out: pGI50 (converted)
  GI50: < 0.01 µM
[25]; [32]
  CC50: 44.7 µM
[25]; read-out: pTGI (converted)
  TGI: 11.5 µM
[26]; read-out: GI50
  GI50: < 0.01 µM
[26]; [31]
  CC50: > 100 µM
[26]; read-out: TGI
  TGI: 33.9 µM
[26]; read-out: pGI50 (converted)
  GI50: < 0.01 µM
[26]; [32]
  CC50: > 100 µM
[26]; read-out: pTGI (converted)
  TGI: 33.9 µM
[27]; read-out: GI50
  GI50: < 0.01 µM
[27]; [31]
  CC50: 24.2 µM
[27]; read-out: TGI
  TGI: < 0.01 µM
[27]; read-out: pGI50 (converted)
  GI50: < 0.01 µM
[27]; [32]
  CC50: 24 µM
[27]; read-out: pTGI
  TGI: < 0.01 µM
[28]; read-out: GI50
  GI50: < 0.01 µM
[28]; [31]
  CC50: 50 µM
[28]; read-out: TGI
  TGI: 13 µM
[28]; read-out: pGI50 (converted)
  GI50: < 0.01 µM
[28]; [32]
  CC50: 50.1 µM
[28]; read-out: pTGI (converted)
  TGI: 12.9 µM
[29]; read-out: GI50
  GI50: 0.242 µM
[29]; read-out: LC50
  LC50: > 100 µM
[29]; read-out: TGI
  TGI: 38.8 µM
[29]; read-out: pGI50 (converted)
  GI50: 0.24 µM
[29]; read-out: pLC50 (converted)
  LC50: > 100 µM
[29]; read-out: pTGI (converted)
  TGI: 38.9 µM
[30]; read-out: GI50
  GI50: < 0.01 µM
[30]; read-out: LC50
  LC50: > 100 µM
[30]; read-out: TGI
  TGI: 12.9 µM
[30]; read-out: pGI50 (converted)
  GI50: < 0.01 µM
[30]; read-out: pLC50 (converted)
  LC50: > 100 µM
[30]; read-out: pTGI (converted)
  TGI: 12.9 µM
